Measured values published in patent publication US11505548B2, “Heterocyclic compounds and their use for treatment of helminthic infections and diseases” (Celgene Corporation, priority 2019, dated 2022).
Where two headings read alike, the source gives them in different places.

System: Onchocerca gutturosa Adult Male Worms
Assay: Onchocerciasis in vitro screening model, worm motility score
Type: cell-based
Settings: read-out: O. gutturosa activity level (IC50 or MED)
[1] = Onchocerca gutturosa, Table 1 O. gutturosa, levels A/B/C, motility or MTT readout not specified
[2] = in vitro, Onchocerca gutturosa adult male worms, class A/B/C

SMILES	IC50 [2] [nM]	IC50 [1] [nM]
CC(C)c1cccnc1Nc1nc(-c2ccc(O[C@@H]3CCN(C4CC4)C[C@@H]3F)cn2)ns1 [Compound 89, 3-(5-((3S,4R)-1-cyclopropyl-3-fluoro-piperidin-4-yloxy)pyridin-2-yl)-N-(3-isopropylpyridin-2-yl)-1,2,4-thiadiazol-5-amine]	–	< 200
CC(C)Oc1ccc(-c2nsc(Nc3cc(C(F)(F)F)c(C(C)C)cn3)n2)nc1 [Compound 119, 3-(5-isopropoxy-pyridin-2-yl)-N-(5-isopropyl-4-(trifluoromethyl)pyridin-2-yl)-1,2,4-thiadiazol-5-amine]	–	< 200
CN1CCC(Oc2ccc(-c3nsc(Nc4ncccc4C(F)(F)F)n3)nc2)CC1 [Compound 55, 3-(5-(1-methyl-piperidin-4-yloxy)pyridin-2-yl)-N-(3-(trifluoromethyl)pyridin-2-yl)-1,2,4-thiadiazol-5-amine]	–	< 200
CC(=O)Nc1ccc(-c2nsc(Nc3ncccc3C)n2)nc1 [Compound 29, N-(6-(5-(3-methylpyridin-2-ylamino)-1,2,4-thiadiazol-3-yl)pyridin-3-yl) acetamide]	–	200 to 500
COc1cccnc1Nc1nc(-c2ccc(OC(C)C)cn2)ns1 [Compound 81, 3-(5-isopropoxy-pyridin-2-yl)-N-(3-methoxy-pyridin-2-yl)-1,2,4-thiadiazol-5-amine]	–	< 200
CC(C)c1cccnc1Nc1nc(-c2ccc(OC3CCN(C4CC4)CC3(F)F)cn2)ns1 (centres unmarked) [Compound 87, 3-(5-(1-cyclo-propyl-3,3-difluoro-piperidin-4-yloxy)pyridin-2-yl)-N-(3-isopropylpyridin-2-yl)-1,2,4-thiadiazol-5-amine]	–	< 200
CC(C)Oc1ccc(-c2nsc(Nc3ncccc3C(=O)N3CCCC3)n2)nc1 [Compound 190, (2-(3-(5-isoprop-oxypyridin-2-yl)-1,2,4-thiadiazol-5-ylamino)pyridin-3-yl) (pyrrolidin-1-yl) methanone]	–	200 to 500
CC(C)Oc1cnc(-c2nsc(Nc3ncccc3C(C)C)n2)cc1C(N)=O [Compound 198, 5-isopropoxy-2-(5-(3-isopropylpyridin-2-ylamino)-1,2,4-thiadiazol-3-yl)isonicotin-amide]	500 to 5000	–
Cc1cccnc1Nc1nc(-c2cc(OC(C)C)c(C(F)(F)F)cn2)ns1 [Compound 152, 3-(4-isoprop-oxy-5-(trifluoromethyl)pyridin-2-yl)-N-(3-methylpyridin-2-yl)-1,2,4-thia-diazol-5-amine]	–	200 to 500
CN(C)c1cccnc1Nc1nc(-c2ccc(OCC3CC3)cn2)ns1 [Compound 118, N2-(3-(5-(cyclopropyl-methoxy)pyridin-2-yl)-1,2,4-thiadiazol-5-yl)-N3,N3-dimethyl-pyridine-2,3-diamine]	–	< 200
CC(C)Oc1cccnc1-c1nsc(Nc2cc(N3CCCC3)ccn2)n1 [Compound 94, 3-(3-isopropoxy-pyridin-2-yl)-N-(4-(pyrrolidin-1-yl)pyridin-2-yl)-1,2,4-thiadiazol-5-amine]	–	< 200
COc1ccc(-c2nsc(Nc3ccc(OC4CCOCC4)cn3)n2)nc1 [Compound 43, 3-(5-methoxy-pyridin-2-yl)-N-(5-(tetrahydro-2H-pyran-4-yloxy)pyridin-2-yl)-1,2,4-thiadiazol-5-amine]	–	< 200
CC(C)Oc1ccc(-c2nsc(Nc3ncccc3C(=O)N(C)C)n2)nc1 [Compound 188, 2-(3-(5-isoprop-oxypyridin-2-yl)-1,2,4-thiadiazol-5-ylamino)-N,N-dimethyl nicotinamide]	–	200 to 500
CC(=O)N1CCC(Oc2ccc(-c3nsc(Nc4ncccc4C)n3)nc2)CC1 [Compound 266, 1-(4-(6-(5-(3-methyl-pyridin-2-ylamino)-1,2,4-thiadiazol-3-yl)pyridin-3-yloxy)piperidin-1-yl)ethanone]	500 to 5000	–
CNc1cccnc1Nc1nc(-c2cc(C)ccn2)ns1 [Compound 23, N3-methyl-N2-(3-(4-methylpyridin-2-yl)-1,2,4-thiadiazol-5-yl) pyridine-2,3-diamine]	–	< 200
Cc1cccnc1Nc1nc(-c2cc(C(F)(F)F)c(OC3CC3)cn2)ns1 [Compound 102, 3-(5-cyclo-propoxy-4-(trifluoromethyl)pyridin-2-yl)-N-(3-methyl-pyridin-2-yl)-1,2,4-thiadiazol-5-amine]	–	500 to 5000
Cc1cccnc1Nc1nc(-c2ccc(OC3CCN(C4CC4)CC3(F)F)cn2)ns1 (centres unmarked) [Compound 83, 3-(5-(1-cyclo-propyl-3,3-difluoro-piperidin-4-yloxy)pyridin-2-yl)-N-(3-methylpyridin-2-yl)-1,2,4-thiadiazol-5-amine]	–	200 to 500
CN(C)c1cccnc1Nc1nc(-c2ccc(OC(F)F)cn2)ns1 [Compound 120, N2-(3-(5-(difluoromethoxy)pyridin-2-yl)-1,2,4-thiadiazol-5-yl)-N3,N3-dimethyl-pyridine-2,3-diamine]	–	500 to 5000
CN(C)c1cccnc1Nc1nc(-c2ccc(OCC(F)(F)F)cn2)ns1 [Compound 101, N3,N3-dimethyl-N2-(3-(5-(2,2,2-trifluoroethoxy)pyridin-2-yl)-1,2,4-thiadiazol-5-yl)pyridine-2,3-diamine]	–	200 to 500
Cc1cccnc1-c1nsc(Nc2ccc(C3CCN(C)CC3)cn2)n1 [Compound 49, N-(5-(1-methyl-piperidin-4-yl)pyridin-2-yl)-3-(3-methylpyridin-2-yl)-1,2,4-thiadiazol-5-amine]	–	500 to 5000
COc1ccnc(-c2nsc(Nc3cc(C(F)(F)F)c(C(C)C)cn3)n2)c1 [Compound 182, N-(5-iso-propyl-4-(trifluoro-methyl)pyridin-2-yl)-3-(4-methoxy-pyridin-2-yl)-1,2,4-thiadiazol-5-amine]	–	200 to 500
CC(=O)N(C)c1cccnc1Nc1nc(-c2cc(C(F)(F)F)c(OC(C)C)cn2)ns1 [Compound 187, N-(2-(3-(5-isopropoxy-4-(trifluoro-methyl)pyridin-2-yl)-1,2,4-thiadiazol-5-ylamino)pyridin-3-yl)-N-methylacetamide]	–	500 to 5000
CC(=O)N(C)c1cccnc1Nc1nc(-c2cc(C(C)C)c(C)cn2)ns1 [Compound 223, N-(2-(3-(4-isopropyl-5-methylpyridin-2-yl)-1,2,4-thiadiazol-5-ylamino)pyridin-3-yl)-N-methyl-acetamide]	200 to 500	–
c1ccc(-c2nsc(Nc3ccc(N4CCOCC4)cn3)n2)nc1 [Cmpd 5, N-(5-morpholino-pyridin-2-yl)-3-(pyridin-2-yl)-1,2,4-thiadiazol-5-amine]	–	500 to 5000
CC(C)c1cccnc1Nc1nc(-c2ccc(O[C@@H]3CCN(C4CC4)C[C@H]3F)cn2)ns1 [Compound 90, 3-(5-((3R,4R)-1-cyclopropyl-3-fluoro-piperidin-4-yloxy)pyridin-2-yl)-N-(3-isopropylpyridin-2-yl)-1,2,4-thiadiazol-5-amine]	–	< 200
O=C(NC1CC(F)(F)C1)c1ccc(Nc2nc(-c3ccc(OC4CC4)cn3)ns2)nc1 [Compound 107, 6-(3-(5-cyclo-propoxypyridin-2-yl)-1,2,4-thiadiazol-5-ylamino)-N-(3,3-difluoro-cyclobutyl) nicotinamide]	–	500 to 5000
Cc1cccnc1Nc1nc(-c2ccc(OC3CCN(C4CCCC4)CC3)cn2)ns1 [Compound 72, 3-(5-(1-cyclo-pentylpiperidin-4-yloxy)pyridin-2-yl)-N-(3-methylpyridin-2-yl)-1,2,4-thiadiazol-5-amine]	–	200 to 500
CCOc1ccc(Nc2nc(-c3cc(OC)ccn3)no2)nc1 [Compound 35, N-(5-ethoxy-pyridin-2-yl)-3-(4-methoxy-pyridin-2-yl)-1,2,4-oxadiazol-5-amine]	–	< 200
Cc1cccnc1Nc1nc(-c2ccc(OC3CCN(C)CC3)cn2)no1 [Compound 21, 3-(5-(1-methyl-piperidin-4-yloxy)pyridin-2-yl)-N-(3-methylpyridin-2-yl)-1,2,4-oxadiazol-5-amine]	–	< 200
COc1cccnc1-c1nsc(Nc2cc(C(F)(F)F)c(C(C)C)cn2)n1 [Compound 210, N-(5-isopropyl-4-(trifluoromethyl)pyridin-2-yl)-3-(3-methoxy-pyridin-2-yl)-1,2,4-thiadiazol-5-amine]	200 to 500	–

More lines, main results first:

IC50 [2] [nM]	SMILES	IC50 [1] [nM]
500 to 5000	COc1ccc(-c2nnc(Nc3cc(OC(C)C)ccn3)o2)nc1 [Compound 255, N-(4-isoprop-oxypyridin-2-yl)-5-(5-methoxy-pyridin-2-yl)-1,3,4-oxadiazol-2-amine]	–
500 to 5000	CC(C)OC(=O)c1cccnc1Nc1nc(-c2ccc(OC(C)C)cn2)ns1 [Compound 327, isopropyl 2-(3-(5-isopropoxypyridin-2-yl)-1,2,4-thiadiazol-5-ylamino)nicotinate]	–
500 to 5000	Cc1ccnc(Nc2nnc(-c3ncccc3C)s2)c1 [Compound 244, 5-(3-methyl-pyridin-2-yl)-N-(4-methyl-pyridin-2-yl)-1,3,4-thiadiazol-2-amine]	–
500 to 5000	CC(=O)N(C)c1cccnc1Nc1nc(-c2cc3c(cn2)CN(C(C)C)C3)ns1 [Compound 310, N-(2-(3-(2-isopropyl-2,3-dihydro-1H-pyrrolo[3,4-c]pyridin-6-yl)-1,2,4-thiadiazol-5-ylamino)pyridin-3-yl)-N-methylacetamide]	–
< 200	CNc1nccnc1Nc1nc(-c2cc3ccn(C(C)C)c3cn2)ns1 [Compound 303, N2-(3-(1-isopropyl-1H-pyrrolo[2,3-c]pyridin-5-yl)-1,2,4-thiadiazol-5-yl)-N3-methylpyrazine-2,3-diamine]	–
500 to 5000	Cc1cccnc1Nc1nc(-c2ccc(C(=O)N(C)C)cn2)no1 [Compound 277, N,N-dimethyl-6-(5-(3-methylpyridin-2-ylamino)-1,2,4-oxadiazol-3-yl)nicotinamide]	–
500 to 5000	CC(=O)N(C)c1cccnc1Nc1nc(-c2cc(C#N)c(OC(C)C)cn2)ns1 [Compound 226, N-(2-(3-(4-cyano-5-isopropoxy-pyridin-2-yl)-1,2,4-thiadiazol-5-ylamino)pyridin-3-yl)-N-methyl-acetamide]	–
500 to 5000	Cc1ccnc(Nc2nnc(-c3ncccc3C)o2)c1 [Compound 236, 5-(3-methyl-pyridin-2-yl)-N-(4-methy-lpyridin-2-yl)-1,3,4-oxadiazol-2-amine]	–
